Source: patent publication US9758503B1, “Coumarin-gossypol derivatives with antitumor activities and a method of preparing the same” (SHAANXI UNIVERSITY OF SCIENCE AND TECHNOLOGY, priority 2017, dated 2017)
Where two headings read alike, the source gives them in different places.

Assays:
[1] = test system: human lung cancer cells (A-549); experiment: MTT tumor cell proliferation inhibition test, A-549; format: cell-based; conditions: read-out: Half Inhibitory Concentration IC50 A549
Experimental: (§1) The compounds of the present invention were subjected to tumor cell proliferation inhibition test, and conventional MTT method was used.
(§2) Cell lines: human hepatoma cells (HepG2), human lung cancer cells (A-549), human gastric cancer cells (SGC-7901). The culture medium was DMEM+15% NBS+double antibody.
(§3) Sample solution preparation: after dissolving with DMSO (Merck), PBS (−) was added to obtain 100 μmol/L solution or homogeneous suspension. The solution was diluted with PBS (−) in DMSO to a final concentration of 0.1, 1, 10, 20, 40, 60, 80, 100 μmol/L.
(§4) Gossypol was used as control solution, prepared under the same condition.
(§5) Cell culture: adherent growth Tumor cells were cultured in 1640 medium containing 10% inactivated neonatal bovine serum and penicillin, streptomycin (1 million U/L), placed in carbon dioxide incubator at 37° C., 5% CO2, and saturated humidity. Cells were treated serially passaged 2-3 times. The first culture was washed with PBS 2 times, and digested with trypsin. Fresh culture medium was added evenly, cells were adjusted to a appropriate concentration and transferred into a new culture flask. Cell in an exponential phase were chosen for the tests.
(§6) MTT Assay for Cell Viability and IC50 Determination:
(§7) Experimental Principle: Living cells mitochondria in the dehydrogenase can reduce yellow MTT to water-insoluble blue-violet product MT (MTT formazan), deposited in the cells. The amount of production is proportional to the number of living cells. […] DMSO can dissolve blue violet crystals, and the color depth is proportional to the amount contained, so the absorbance measured by the microplate reader can reflect the cell viability.
(§8) Methods: The exponential phase cells were digested and counted and seeded in 96-well plates at a density of 2×10^4/mL at 100 μl per well. After 24 hours of incubation, the cells to be tested were treated with 0.1, 1, 10, 20, 40, 60, 80, 100 μmol/L of the compounds. Each experimental group had 5 wells in each concentration, and the culture medium containing 0.4% DMSO was used as control. After 48 hours, the supernatant was discarded, and 100 μl of MTT ((2-(4,5-dimethyl-2-thiazolyl)-3,5-diphenyl-2H-[…]) (1 mg/mL) was added to each well. After another 4 hours, the supernatant was discarded, and 100 μl of DMSO was added to each well. After mixing, the absorbance was measured at 570 nm using a microplate reader. An IC50 calculation software was used to determine the half inhibitory concentration (IC50).

[2] = test system: human hepatoma cells (HepG2); experiment: MTT tumor cell proliferation inhibition test, HepG2; format: cell-based; conditions: read-out: Half Inhibitory Concentration IC50 HepG2
Experimental: as §1, §2, §3, §4, §5, §6, §7, §8

[3] = test system: human gastric cancer cells (SGC-7901); experiment: MTT tumor cell proliferation inhibition test, SGC-7901; format: cell-based; conditions: read-out: Half Inhibitory Concentration IC50 SGC-7901
Experimental: as §1, §2, §3, §4, §5, §6, §7, §8

[4] = test system: three cell lines tested (HepG2, A-549, SGC-7901); experiment: MTT tumor cell proliferation inhibition test, summary over the three cell lines; format: cell-based, human
Experimental: as §1, §2, §3, §4
as §5, with “Cell in an exponential phase were chosen for the tests.” left out
as §7, with “the” for “the cells. The amount of production is proportional to the number of living”
as §8, with “After 24 hours of incubation, the cells to be tested were treated with 0.1, 1, 10, 20, 40, 60, 80, 100 μmol/L of the compounds. Each experimental group had 5 wells in each concentration, and the culture medium containing 0.4% DMSO was used as control.” left out

[5] = A549 cells, MTT, 48 hours treatment
[6] = HepG2 cells, MTT, 48 hours treatment
[7] = SGC-7901 cells, MTT, 48 hours treatment

| Compound | IC50 [1, 5] [µM] | IC50 [2, 6] [µM] | IC50 [3, 7] [µM] | antitumor activities (verbal summary) [4] | IC50 ([1]; A549, 48 h) [µM] | IC50 ([2]; HepG2, 48 h) [µM] | IC50 ([3]; SGC-7901, 48 h) [µM] |
| --- | --- | --- | --- | --- | --- | --- | --- |
| Cc1cc2c(c(O)c1-c1c(C)cc3c(C(C)C)c(O)c(O)c(C=O)c3c1O)/C(=C/c1c(O)c3ccccc3oc1=O)C(=O)C(O)=C2C(C)C [Compound A-1, (Z)-1,1′,6,6′,7-pentahydroxy-8′-((4-hydroxy-2-oxo-2H-chromen-3-yl)methylene)-5,5′-diisopropyl-3,3′-dimethyl-7′-oxo-7′,8′-dihydro-[2,2′-binaphthalene]-8-carbaldehyde] | 17.1 ± 0.72 | 10.7 ± 0.65 | 21.3 ± 1.34 | best antitumor activities | – | – | – |
| Cc1cc2c(c(O)c1-c1c(C)cc3c(C(C)C)c(O)c(O)c(C=O)c3c1O)/C(=C/c1c(O)c3cc(Cl)ccc3oc1=O)C(=O)C(O)=C2C(C)C [Compound A-2, (Z)-8′-((6-chloro-4-hydroxy-2-oxo-2H-chromen-3-yl)methylene)-1,1′,6,6′,7-pentahydroxy-5,5′-diisopropyl-3,3′-dimethyl-7′-oxo-7′,8′-dihydro-[2,2′-binaphthalene]-8-carbaldehyde] | > 100 | > 100 | > 100 | – | – | – | – |
| Cc1cc2c(c(O)c1-c1c(C)cc3c(C(C)C)c(O)c(O)c(C=O)c3c1O)/C(=C/c1c(O)c3ccc(O)cc3oc1=O)C(=O)C(O)=C2C(C)C [Compound A-3, (Z)-8′-((4,7-dihydroxy-2-oxo-2H-chromen-3-yl)methylene)-1,1′,6,6′,7-pentahydroxy-5,5′-diisopropyl-3,3′-dimethyl-7′-oxo-7′,8′-dihydro-[2,2′-binaphthalene]-8-carbaldehyde] | 26.7 ± 1.12 | 17.8 ± 0.95 | 30.7 ± 1.31 | good antitumor activities | – | – | – |
| COc1cccc2c(O)c(/C=C3\C(=O)C(O)=C(C(C)C)c4cc(C)c(-c5c(C)cc6c(C(C)C)c(O)c(O)c(C=O)c6c5O)c(O)c43)c(=O)oc12 [Compound A-4, (Z)-1,1′,6,6′,7-pentahydroxy-8′-((4-hydroxy-8-methoxy-2-oxo-2H-chromen-3-yl)methylene)-5,5′-diisopropyl-3,3′-dimethyl-7′-oxo-7′,8′-dihydro-[2,2′-binaphthalene]-8-carbaldehyde] | 43.4 ± 1.21 | 26.5 ± 1.02 | 31.2 ± 1.33 | – | – | – | – |
| Cc1cc2c(c(O)c1-c1c(C)cc3c(C(C)C)c(O)c(O)c(C=O)c3c1O)/C(=C/c1c(O)c3c(O)cc(O)cc3oc1=O)C(=O)C(O)=C2C(C)C [Compound A-5, (Z)-1,1′,6,6′,7-pentahydroxy-5,5′-diisopropyl-3,3′-dimethyl-7′-oxo-8′-((4,5,7-trihydroxy-2-oxo-2H-chromen-3-yl)methylene)-7′,8′-dihydro-[2,2′-binaphthalene]-8-carbaldehyde] | > 100 | > 100 | 88.8 ± 3.02 | – | – | – | – |
| Cc1cc(C)c2c(O)c(/C=C3\C(=O)C(O)=C(C(C)C)c4cc(C)c(-c5c(C)cc6c(C(C)C)c(O)c(O)c(C=O)c6c5O)c(O)c43)c(=O)oc2c1 [Compound A-6, (Z)-1,1′,6,6′,7-pentahydroxy-8′-((4-hydroxy-5,7-dimethyl-2-oxo-2H-chromen-3-yl)methylene)-5,5′-diisopropyl-3,3′-dimethyl-7′-oxo-7′,8′-dihydro-[2,2′-binaphthalene]-8-carbaldehyde] | > 100 | 42.1 ± 1.04 | 32.6 ± 1.81 | – | – | – | – |
| Cc1cc2c(c(O)c1-c1c(C)cc3c(c1O)/C(=C/c1c(O)c4ccccc4oc1=O)C(=O)C(O)=C3C(C)C)/C(=C/c1c(O)c3ccccc3oc1=O)C(=O)C(O)=C2C(C)C [Compound B-1, (8Z,8′Z)-1,1′,6,6′-tetrahydroxy-8,8′-bis((4-hydroxy-2-oxo-2H-chromen-3-yl)methylene)-5,5′-diisopropyl-3,3′-dimethyl-[2,2′-binaphthalene]-7,7′(8H,8′H)-dione] | 22.3 ± 0.9 | 15.2 ± 0.34 | 26.9 ± 1.35 | good antitumor activities | – | – | – |
| Cc1cc2c(c(O)c1-c1c(C)cc3c(c1O)/C(=C/c1c(O)c4cc(Cl)ccc4oc1=O)C(=O)C(O)=C3C(C)C)/C(=C/c1c(O)c3cc(Cl)ccc3oc1=O)C(=O)C(O)=C2C(C)C [Compound B-2, (8Z,8′Z)-8,8′-bis((6-chloro-4-hydroxy-2-oxo-2H-chromen-3-yl)methylene)-1,1′,6,6′-tetrahydroxy-5,5′-diisopropyl-3,3′-dimethyl-[2,2′-binaphthalene]-7,7′(8H,8′H)-dione] | 68.5 ± 2.44 | > 100 | > 100 | – | – | – | – |
| Cc1cc2c(c(O)c1-c1c(C)cc3c(c1O)/C(=C/c1c(O)c4ccc(O)cc4oc1=O)C(=O)C(O)=C3C(C)C)/C(=C/c1c(O)c3ccc(O)cc3oc1=O)C(=O)C(O)=C2C(C)C [Compound B-3, (8Z,8′Z)-8,8′-bis((4,7-dihydroxy-2-oxo-2H-chromen-3-yl)methylene)-1,1′,6,6′-tetrahydroxy-5,5′-diisopropyl-3,3′-dimethyl-[2,2′-binaphthalene]-7,7′(8H,8′H)-dione] | 28.6 ± 0.64 | 16.7 ± 0.45 | 33.2 ± 1.01 | – | – | – | – |
| COc1cccc2c(O)c(/C=C3\C(=O)C(O)=C(C(C)C)c4cc(C)c(-c5c(C)cc6c(c5O)/C(=C/c5c(O)c7cccc(OC)c7oc5=O)C(=O)C(O)=C6C(C)C)c(O)c43)c(=O)oc12 [Compound B-4, (8Z,8′Z)-1,1′,6,6′-tetrahydroxy-8,8′-bis((4-hydroxy-8-methoxy-2-oxo-2H-chromen-3-yl)methylene)-5,5′-diisopropyl-3,3′-dimethyl-[2,2′-binaphthalene]-7,7′(8H,8′H)-dione] | 38.4 ± 0.79 | 22.4 ± 0.58 | 40 ± 1.43 | – | – | – | – |
| Cc1cc2c(c(O)c1-c1c(C)cc3c(c1O)/C(=C/c1c(O)c4c(O)cc(O)cc4oc1=O)C(=O)C(O)=C3C(C)C)/C(=C/c1c(O)c3c(O)cc(O)cc3oc1=O)C(=O)C(O)=C2C(C)C [Compound B-5, (8Z,8′Z)-1,1′,6,6′-tetrahydroxy-5,5′-diisopropyl-3,3′-dimethyl-8,8′-bis((4,5,7-trihydroxy-2-oxo-2H-chromen-3-yl)methylene)-[2,2′-binaphthalene]-7,7′(8H,8′H)-dione] | > 100 | > 100 | 54.3 ± 2.85 | – | – | – | – |
| Cc1cc(C)c2c(O)c(/C=C3\C(=O)C(O)=C(C(C)C)c4cc(C)c(-c5c(C)cc6c(c5O)/C(=C/c5c(O)c7c(C)cc(C)cc7oc5=O)C(=O)C(O)=C6C(C)C)c(O)c43)c(=O)oc2c1 [Compound B-6, (8Z,8′Z)-1,1′,6,6′-tetrahydroxy-8,8′-bis((4-hydroxy-5,7-dimethyl-2-oxo-2H-chromen-3-yl)methylene)-5,5′-diisopropyl-3,3′-dimethyl-[2,2′-binaphthalene]-7,7′(8H,8′H)-dione] | > 100 | 58.6 ± 3.23 | > 100 | – | – | – | – |
| Cc1cc2c(C(C)C)c(O)c(O)c(C=O)c2c(O)c1-c1c(C)cc2c(C(C)C)c(O)c(O)c(C=O)c2c1O [Gossypol] | – | – | – | – | 26.3 ± 1.89 | 18.4 ± 0.71 | 43.6 ± 2.03 |
